Target: Human immunodeficiency virus type 1 integrase (Human immunodeficiency virus 1, UniProt Q7ZJM1)
Test: Inhibition of HIV1 recombinant integrase expressed in Escherichia coli

Sequence of Human immunodeficiency virus type 1 integrase (Q7ZJM1 whole entry): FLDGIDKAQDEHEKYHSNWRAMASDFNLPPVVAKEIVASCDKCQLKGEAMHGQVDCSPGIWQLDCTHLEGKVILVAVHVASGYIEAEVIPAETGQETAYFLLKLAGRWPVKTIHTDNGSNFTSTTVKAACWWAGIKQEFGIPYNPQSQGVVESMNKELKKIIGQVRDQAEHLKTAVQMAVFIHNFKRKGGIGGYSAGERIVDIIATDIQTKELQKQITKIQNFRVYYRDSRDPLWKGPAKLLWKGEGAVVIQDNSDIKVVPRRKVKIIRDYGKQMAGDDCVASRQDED

With `O=C(OC[C@H]1O[C@@H](Oc2c(-c3ccc(O)c(O)c3)oc3cc(O)cc(O)c3c2=O)[C@H](OC(=O)c2cc(O)c(O)c(O)c2)[C@@H](O)[C@H]1O)c1cc(O)c(O)c(O)c1` the IC50 was 31.5 µM.
In the case of `O=C(OC[C@H]1O[C@@H](OC(=O)c2cc(O)c(O)c(O)c2)[C@H](OC(=O)c2cc(O)c(O)c(O)c2)[C@@H](O)[C@@H]1O)c1cc(O)c(O)c(O)c1`, the IC50 is reported as 44.5 µM.
For `O=C(O[C@H]1[C@H](Oc2c(-c3ccc(O)c(O)c3)oc3cc(O)cc(O)c3c2=O)OC[C@H](O)[C@@H]1O)c1cc(O)c(O)c(O)c1`, the IC50 was 30.9 µM.
Work on `O=C(O[C@H]1[C@H](Oc2c(-c3ccc(O)c(O)c3)oc3cc(O)cc(O)c3c2=O)O[C@H](CO)[C@H](O)[C@@H]1O)c1cc(O)c(O)c(O)c1` yielded an IC50 of 45.3 µM.
Compound `O=c1c(O[C@@H]2OC[C@H](O)[C@H](O)[C@H]2O)c(-c2ccc(O)cc2)oc2cc(O)cc(O)c12` has an IC50 of over 239 µM.
Work on `COC(=O)c1cc(O)c(O)c(O)c1` [GALLIC ACID METHYL ESTER] yielded an IC50 of 155 µM.
In the case of `O=c1c(O[C@@H]2O[C@H](CO)[C@H](O)[C@H](O)[C@H]2O)c(-c2ccc(O)c(O)c2)oc2cc(O)cc(O)c12` [HYPEROSIDE], the IC50 is reported as 139 µM.
In the case of `O=C(OC[C@H]1O[C@@H](OC(=O)c2cc(O)c(O)c(O)c2)[C@H](OC(=O)c2cc(O)c(O)c(O)c2)[C@@H](OC(=O)c2cc(O)c(O)c(O)c2)[C@@H]1OC(=O)c1cc(O)c(O)c(O)c1)c1cc(O)c(O)c(O)c1` [PENTAGALLOYL GLUCOSE], the IC50 is reported as 29.8 µM.
With `C[C@@H]1O[C@@H](Oc2c(-c3ccc(O)c(O)c3)oc3cc(O)cc(O)c3c2=O)[C@H](O)[C@H](O)[C@H]1O` [QUERCITRIN] the IC50 was 168 µM.

— ChEMBL document CHEMBL1159200, “A new flavonol glycoside gallate ester from Acer okamotoanum and its inhibitory activity against human immunodeficiency virus-1 (HIV-1) integrase” (J Nat Prod, 1998)
